Calls of active or inactive are those of the source. The rule behind the calls is not given here.
Legend:
NCI-H1975 [1] = assay: Induction of cell cycle arrest in human NCI-H1975 cells assessed as accumulation G1 phase at 8 uM incubated for 72 hrs (reference value: 66.36%); assay type: functional
NCI-H1975 [2] = assay: Induction of cell cycle arrest in human NCI-H1975 cells assessed as accumulation G1 phase at 2 uM incubated for 72 hrs (reference value: 66.36%); assay type: functional
NCI-H1975 [3] = assay: Antiproliferative activity against human NCI-H1975 cells; assay type: functional, cell-based
NCI-H1299 [4] = assay: Induction of cell cycle arrest in human NCI-H1299 cells assessed as accumulation S phase at 2 uM incubated for 72 hrs (reference value: 43.67%); assay type: functional
NCI-H1299 [5] = assay: Induction of cell cycle arrest in human NCI-H1299 cells assessed as accumulation S phase at 8 uM incubated for 72 hrs (reference value: 43.67%); assay type: functional
NCI-H460 = assay: Antiproliferative activity against human NCI-H460 cells; assay type: functional, cell-based
RAW264.7 = assay: Cytotoxicity against mouse RAW264.7 cells at 10 uM measured after 24 hrs by CCK-8 assay relative to control; assay type: toxicity, cell-based; settings: raw264.7, 24 h
NCI-H1975 [6] = assay: Induction of cell cycle arrest in human NCI-H1975 cells assessed as accumulation G2 phase at 2 uM incubated for 72 hrs (reference value: 11.97%); assay type: functional
NCI-H1975 [7] = assay: Antiproliferative activity against human NCI-H1975 cells assessed as decrease in p-p65 expression at 2 to 8 uM measured after 72 hrs by western blot analysis; assay type: functional, cell-based; settings: dose 2-8 µM
NCI-H1299 [8] = assay: Induction of cell cycle arrest in human NCI-H1299 cells assessed as accumulation G2 phase at 8 uM incubated for 72 hrs (reference value: 16.08%); assay type: functional
NCI-H1299 [9] = assay: Induction of cell cycle arrest in human NCI-H1299 cells assessed as accumulation G1 phase at 8 uM incubated for 72 hrs (reference value: 40.25%); assay type: functional
NCI-H1975 [10] = assay: Induction of cell cycle arrest in human NCI-H1975 cells assessed as accumulation S phase at 8 uM incubated for 72 hrs (reference value: 22.67%); assay type: functional
A549 = assay: Antiproliferative activity against human A549 cells; assay type: functional, cell-based
NCI-H1975 [11] = assay: Induction of cell cycle arrest in human NCI-H1975 cells assessed as accumulation G2 phase at 8 uM incubated for 72 hrs (reference value: 11.97%); assay type: functional
NCI-H1299 [12] = assay: Induction of cell cycle arrest in human NCI-H1299 cells assessed as accumulation G2 phase at 2 uM incubated for 72 hrs (reference value: 16.08%); assay type: functional
NCI-H1299 [13] = assay: Antiproliferative activity against human NCI-H1299 cells; assay type: functional, cell-based
NCI-H1975 [14] = assay: Induction of cell cycle arrest in human NCI-H1975 cells assessed as accumulation S phase at 2 uM incubated for 72 hrs (reference value: 22.67%); assay type: functional
NCI-H1299 [15] = assay: Induction of cell cycle arrest in human NCI-H1299 cells assessed as accumulation G1 phase at 2 uM incubated for 72 hrs (reference value: 40.25%); assay type: functional

IC50 (NCI-H1975 [3]): 7.24 µM
IC50 (NCI-H460): 15.7 µM
IC50 (A549): 11.1 µM
IC50 (NCI-H1299 [13]): 8.39 µM
Structure (SMILES): C[C@H](CC[C@@H](O)C(C)(C)O)[C@H]1CC[C@@]2(C)[C@@H]3CC=C4[C@@H](C/C(=C\c5ccncc5)C(=O)C4(C)C)[C@]3(C)C(=O)C[C@]12C
Activity (NCI-H1975 [1]): 83.96%
Activity (NCI-H1975 [2]): 66.51%
Activity (NCI-H1299 [4]): 40.12%
Activity (NCI-H1299 [5]): 33.12%
Activity (RAW264.7): Toxic
Activity (NCI-H1975 [6]): 12.84%
Activity (NCI-H1975 [7]): Active
Activity (NCI-H1299 [8]): 16.38%
Activity (NCI-H1299 [9]): 50.5%
Activity (NCI-H1975 [10]): 9.67%
Activity (NCI-H1975 [11]): 6.38%
Activity (NCI-H1299 [12]): 17.4%
Activity (NCI-H1975 [14]): 20.66%
Activity (NCI-H1299 [15]): 42.49%
